In patent US20050107611A1, “Pyrazolyl-substituted triazoloquinoxalines” (priority 2001, published 2005):
Like-named read-outs stand apart in the source and are kept apart here.

How the values were obtained:
adenosine receptors = details: in words; development for ischemic stroke halted; cited from earlier work
A2A adenosine receptor [1] = target: T1, A2A adenosine receptor (Rattus norvegicus, UniProt P30543); details: Table 1, literature values; cited from earlier work
A1 adenosine receptor [2] = target: T2, A1 adenosine receptor (Rattus norvegicus, UniProt P25099); details: cited from earlier work
T2 sequence (P25099 1-326): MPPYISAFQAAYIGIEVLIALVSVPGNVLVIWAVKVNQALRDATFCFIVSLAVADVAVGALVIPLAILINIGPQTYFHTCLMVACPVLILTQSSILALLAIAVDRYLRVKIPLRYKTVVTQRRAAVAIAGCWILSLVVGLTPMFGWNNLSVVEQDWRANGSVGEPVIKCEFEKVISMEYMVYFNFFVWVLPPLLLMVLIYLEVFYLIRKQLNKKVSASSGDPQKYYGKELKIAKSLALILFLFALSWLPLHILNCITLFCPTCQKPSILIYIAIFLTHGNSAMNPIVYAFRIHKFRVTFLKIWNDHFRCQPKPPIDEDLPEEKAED

A2A adenosine receptor [3] = target: T1, A2A adenosine receptor; assay: Receptor binding assay with [3H]MSX-2 on A2A-adenosine receptors; set-up: tissue Pel Freez Company (Rogers, Ark., USA); host or cells: rat brain striatum membranes; details: for Ki: Table 2, [3H]MSX-2, read-out: A2A K1
Source text: (§1) The data of the biological tests that are cited below results from radioligand-binding assays on A1, A2A, A2B and A3 adenosine receptors (ARs).
(§2) The following selective radioligands are used in the biological tests: • [^3H]CCPA (for A1 ARs) [Klotz et al., Naunyn-Schmiedeberg's Arch. Pharmacol., 340, 679 (1989)] • [^3]MSX-2 (for A2A ARs) [Muiller et al., Eur. J. Pharm. Sci., 10, 259 (2000)] • [^3H]ZM241385 (for A2B ARs_[X.-D. Ji, K. A. Jacobson, Drug Des. Discov., 16, 217 (1999)] • [^3H]PSB-11 (new antagonistic radioligand for human A3 ARs) [M. Dieckmann, M. Thorand, V. Ozola, C. E. Muiller, in Vorbereitung [Preparation] (2001)]. • [^125I]AB-MECA (for rat-A3 ARs) [Olah et al., Mol. Pharmacol., 45, 978 (1994)]. Description of the Assays That are Used for Testing Substances Production of Tissue Preparations Made from Rat Brains
(§3) The cell decomposing of the cerebral cortex is carried out with a glass-Teflon homogenizer (stages 5-6, 10 seconds) in 0.32 M saccharose solution. The membranes are purified over various centrifuging steps. With centrifuging at 600 g, 4° C., for 10 minutes, a large amount of cell debris is separated via the P1 fraction, and the supernatant (P2 fraction) is further worked up: in the subsequent three centrifuging steps (35,000 g; 4° C.; 60 minutes), a pellet is produced that is resuspended in 50 mmol of TRIS buffer, pH 7.4 with the Ultraturrax (stages 3-4, 3 seconds); the respective supernatant is discarded. The striata are added to cold TRIS buffer, homogenized with the Ultraturrax in stages 3 to 4-(3 seconds) and then centrifuged at 35,000 g, 4° C., for 20 minutes. The supernatant is discarded, and the pellet is resuspended in 50 mmol of TRIS buffer (50 mmol, pH 7.4). The washing process is repeated twice more. The membrane preparations are stored at −80° C. and are held for several months. The cerebral cortex membrane preparation is used for A1-radioligand binding studies, and the striatum is used for A2A-radiologiand binding studies.
(§4) The test substances are dissolved in DMSO to 10 mmol. The final concentration of DMSO in the assay is 2.5% for A1- and A2A-adenosine receptor assays and 1-2% for A2B- and A3-assays. Dilution series of the test substances are produced from the stock solution. Five to eight different test concentrations, which comprise 3 orders of magnitude (e.g., 1 nm to 1000 nm), are used.
Receptor Binding Assay with [^3H]MSX-2 on A2A-Adenosine Receptors:
• 25 μl of DMSO, NECA (800 μmol) or test substance dilutions • 775 μl of TRIS buffer (for production, see above) • 100 μl of [^3H]MSX-2 (final concentration 1 nmol; KD value 8 nmol) • 100 μl of rat-striatum-membrane preparation or preparation of CHO cells, which express the human A2A receptor, incubated with 0.12 IE adenosine-deaminase (protein concentration: 25-75 μg/ml) • 1000 μl of final volume
The assay is performed according to the instructions of the receptor-binding assay with [^3H]CCPA with consideration of the amounts and solutions that are listed above. The incubation time is 30 minutes at 23° C. in an oscillating water bath. The glass fiber filter is introduced 30 minutes before use in 0.5% PEI solution.
(§5) The mean value is calculated from three independent experiments. IC50 and K, values are obtained from the Cheng-Prusoff equation, the concentration and the KD value of the radioligand. For calculation, the program GraphPadPrism™, Version 3.0 (GraphPad, San Diego, Calif., USA), was used.

A1 adenosine receptor [4] = target: T2, A1 adenosine receptor; assay: Radioligand binding with [3H]CCPA on A1-adenosine receptors, rat brain cortex membranes; set-up: tissue Pel Freez Company (Rogers, Ark., USA); host or cells: rat brain cerebral cortex membranes; details: Table 2; [3H]CCPA; read-out: A1 K1
Source text: as §1, §2
For the preparations, deep-frozen rat brains of the Pel Freez Company (Rogers, Ark., USA) are used. The rat brains are thawed in 0.32 M saccharose solution, the cortex is cut off, and the striata are prepared outside.
as §3, §4
Radioligand Binding Studies with [^3H]CCPA on A1-Adenosine Receptors:
The mixture is incubated for 90 minutes in an oscillating water bath at 23° C. Then, it is filtered off with a Brandel cell-harvester and washed twice more with ice-cooled TRIS buffer, 50 mmol, pH 7.4 (3 ml). The filter plates are conveyed in scintillation vials, doused with 2.5 ml of Ultima Gold Scintillation cocktail and incubated for at least 6 hours before they are measured in a scintillation counter.
as §5

[5] = in words; cited from earlier work
A2A-receptors = details: read-out: KiA2A; cited from earlier work
[6] = in words; cited from earlier work; remark: listed apart in the source
[7] = Table 1, literature values, read-out: A1 K1

T1 sequence (P30543 whole entry): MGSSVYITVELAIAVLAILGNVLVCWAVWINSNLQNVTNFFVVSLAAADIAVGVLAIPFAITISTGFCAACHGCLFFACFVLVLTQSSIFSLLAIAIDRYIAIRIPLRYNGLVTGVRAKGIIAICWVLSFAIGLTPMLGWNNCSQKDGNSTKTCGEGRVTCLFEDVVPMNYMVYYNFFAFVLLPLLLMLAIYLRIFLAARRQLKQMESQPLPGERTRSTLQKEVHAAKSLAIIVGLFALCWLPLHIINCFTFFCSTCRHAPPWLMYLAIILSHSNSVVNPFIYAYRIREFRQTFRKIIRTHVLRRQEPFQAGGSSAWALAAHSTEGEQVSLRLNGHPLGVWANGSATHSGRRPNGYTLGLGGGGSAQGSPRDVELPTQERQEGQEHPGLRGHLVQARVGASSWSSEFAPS

Row | SMILES | A2A % Inhibition @ 25 μmol (A2A adenosine receptor [1]) | Ki (A1 adenosine receptor [2]; [7]) [nM] | Ki (A2A adenosine receptor [3]) [nM] | Ki (A1 adenosine receptor [4]) [nM] | further results
1 | Nc1nc2ccc(Cl)cc2c2nc(-c3ccco3)nn12 [CGS-15943, 9-Chloro-2-(2-furanyl)-[1,2,4]triazolo[1,5-c]quinazoline-5-amine] | – | – | – | – | selectivity (adenosine receptors): inadequate selectivity
2 | Clc1cc(-c2nc3ccccc3n3c(Cc4cccs4)nnc23)[nH]n1 [R = 2-Thienylmethyl] | (21% ± 10%) | – | – | – | Ki (A1 adenosine receptor [2]; read-out: KiA1): 200 nM
3 | Clc1cc(-c2nc3ccccc3n3c(Cc4ccccc4)nnc23)[nH]n1 [R =—CH2C6H5] | (6.1% ± 1.5%) | 310 ± 90 | – | – | –
4 | Clc1cc(-c2nc3ccccc3n3c(COCc4ccccc4)nnc23)n[nH]1 [Y = C—CH2—O—CH2-Ph, R5 = H, R6 = Cl] | – | – | > 10000 | 620 | A2A % inhib. @ 10 μmol (A2A adenosine receptor [3]; 10 μmol): (3%)
5 | Clc1cc(-c2nc3ccccc3n3c(-c4ccco4)nnc23)[nH]n1 [R = 2-Furyl] | (31% ± 3%) | 410 ± 160 | – | – | –
6 | Clc1cc(-c2nc3ccccc3n3c(-c4ccsc4)nnc23)n[nH]1 [Y = C-(3-Thienyl), R5 = H, R6 = Cl] | – | – | 4100 | 330 | –
7 | Clc1cc(-c2nc3ccccc3n3c(-c4ccccc4)nnc23)[nH]n1 [R = —C6H5] | (0%) | 1620 ± 680 | – | – | –
8 | Nc1nc2c(cnn2CCc2ccccc2)c2nc(-c3ccco3)nn12 [Sch-52861, 2-(2-Furanyl)-7-(2-phenylethyl)-7H-pyrazolo[4,3-e][1,2,4]triazolo[1,5-c]pyrimidine-5-amine] | – | – | – | – | oral bioavailability [5]: poor oral bioavailability; Ki (A2A-receptors): 2.3 nM; solubility [6]: inadequate solubility
9 | CC(Oc1ccccc1)c1nnc2c(-c3cc(Cl)[nH]n3)nc3ccccc3n12 (stereo not drawn) [Y = C—CH—(CH3)—O-Ph, R5 = H, R6 = Cl] | – | – | 1180 | 100 | –
10 | Clc1cc(-c2nc3ccccc3n3c(-c4cccs4)nnc23)[nH]n1 [R = 2-Thienyl] | (22% ± 13%) | 710 ± 60 | – | – | –
